{"source": "patent US11090313B2", "about": "“Methods for inhibiting muscle atrophy” (UNIVERSITY OF IOWA RESEARCH FOUNDATION, priority 2010, dated 2021)", "format_in_all_cases": "in vivo, mouse", "key": {"C57BL/6 mice [1]": {"system": "C57BL/6 mice", "assay": "Fasting-induced muscle atrophy in mice (i.p. dosing, 24 h fast)", "method": "The mice were then fasted, and after 12 hours of fasting, the mice received a second dose of the compound or vehicle. After 24 hours of fasting, the blood glucose was measured and muscles were harvested. The data shown in FIGS. 6C-6H are means±SEM from ≤16 mice per condition. […] The effects of metformin and ursolic acid on fasting-induced muscle atrophy were also examined, i.e. the effect of 24 h fast (relative to ad lib feeding) on wet weight of lower hindlimb skeletal muscle (bilateral tibialis anterior (“TA” muscle), gastrocnemius, and soleus; see FIGS. 6E-6G). […] In FIGS. 6E-6H, each data point represents one mouse and the horizontal bars denote the means. In FIGS. 6C-6H, P-values were determined using unpaired t-tests.\nMice were then fasted, and after 12 hours of fasting, mice received a second dose of ursolic acid, oleanolic acid, or vehicle. After 24 hours of fasting, lower hindlimb skeletal muscles and liver were harvested and weighed.\nTo test this, food was withdrawn from mice, and then vehicle, ursolic acid (200 mg/kg) or tomatidine (50 mg/kg) were administered by i.p. injection. Twelve hours later, mice received another i.p. injection of vehicle or the same dose of ursolic acid or tomatidine. Twelve hours later, skeletal muscles were harvested and weighed. […] We next used the same protocol to compare the effects of vehicle (corn oil) and tomatidine (5, 15 and 50 mg/kg)."}, "C57BL/6 mice [2]": {"system": "C57BL/6 mice", "assay": "High fat diet model of obesity and metabolic syndrome with ursolic acid", "conditions": "high fat diet containing 0.27% ursolic acid", "method": "To test this, C57BL/6 mice were given ad libitum access to a high fat diet (HFD; Teklad TD.93075; 55% calories from fat) lacking or containing 0.27% ursolic acid. After 7 weeks, mice from each group were studied for three days in comprehensive lab animal monitoring systems (“CLAMS”; Columbus Instruments). In the CLAMS, mice were maintained on the same diet they had been eating since the beginning of the experiment. Following CLAMS, tissues were harvested for analysis.\nThe study was carried out as follows: C57BL/6 mice were given ad libitum access to a high fat diet (“HFD”; Teklad TD.93075; 55% calories from fat) lacking or containing 0.27% ursolic acid. After 5 weeks, mice were fasted for 16 h before blood glucose was measured via the tail vein (FIG. 15A). Normal fasting blood glucose: ≤100 mg/dl. (B-I) After 7 weeks, liver and plasma were harvested for analysis (FIGS. 15B-15H)."}, "C57BL/6 mice [3]": {"system": "C57BL/6 mice", "assay": "Denervation-induced skeletal muscle atrophy model"}, "mice": {"system": "mice", "assay": "Immobilization-induced skeletal muscle atrophy model (stapled tibialis anterior)", "conditions": "i.p. twice daily", "method": "To test this, a mouse model of immobilization-induced skeletal muscle atrophy was used: mice were administered vehicle (corn oil) or varying doses of ursolic acid (positive control) or betulinic acid via intraperitoneal injection twice a day for two days. One tibialis anterior (TA) muscle was immobilized with a surgical staple, leaving the contralateral mobile TA as an intra-subject control. The vehicle or the same dose of ursolic acid or betulinic acid was continuously administered via i.p. injection twice daily for six days before comparing weights of the immobile and mobile TAs.\nTo test this, mice were administered vehicle (corn oil), ursolic acid (200 mg/kg), naringenin (200 mg/kg), or the combination of ursolic acid and naringenin (each at 200 mg/kg) via i.p injection twice a day for two days. One tibialis anterior (TA) muscle was immobilized with a surgical staple, leaving the contralateral mobile TA as an intrasubject control. Vehicle or the same doses of ursolic acid and/or naringenin was continuously administered via i.p. injection twice daily for six days before comparing weights of the immobile and mobile TAs.\nTo test this, mice were administered vehicle (corn oil) or tomatidine (50, 100 or 200 mg/kg) via i.p injection twice a day for two days. One tibialis anterior (TA) muscle was immobilized with a surgical staple, leaving the contralateral mobile TA as an intrasubject control. Vehicle or the same doses of tomatidine was administered via i.p. injection twice daily for six days before comparing weights of the immobile and mobile TAs. […] The same protocol was used to compare the effects of vehicle (corn oil) and tomatidine (5, 15 or 50 mg/kg) on immobilization-induced muscle atrophy."}, "[4]": {"conditions": "ursolic acid 200 mg/kg i.p. twice, 24 h fast, qPCR, normalized to vehicle"}}, "note": "Entries after “also recorded” stand apart in the source; their conditions may differ.", "data": [{"smiles": "C[C@H]1[C@H](C)CC[C@]2(C(=O)O)CC[C@]3(C)C(=CC[C@@H]4[C@@]5(C)CC[C@H](O)C(C)(C)[C@@H]5CC[C@]43C)[C@H]12", "note": "[ursolic acid]", "values": [{"measurement": "skeletal muscle weight in fasted mice (fasting-induced muscle atrophy)", "setting": "C57BL/6 mice [1]; i.p. at 0 and 12 h of 24 h fast, vs vehicle, mg/kg: ursolic acid 200, oleanolic acid 200, metformin 250, tomatidine 50, allantoin 2, tacrine 4, ungerine 2, hippeastrine 2, conessine 2", "result": "increased skeletal muscle weight; also recorded: increased muscle weight in fasted mice"}, {"measurement": "fasting blood glucose", "setting": "C57BL/6 mice [1]; mice, i.p. at 0 and 12 h of 24 h fast, mg/kg: metformin 250, ursolic acid 200, hippeastrine 2, conessine 2", "result": "significantly reduced fasting blood glucose"}, {"measurement": "increase of muscle weight in fasted mice", "setting": "C57BL/6 mice [1]; ursolic acid 200 mg/kg i.p. twice, 24 h fast, bilateral TA, gastrocnemius and soleus wet weight", "result": "7±2", "unit": "%"}, {"measurement": "MuRF1 mRNA levels in TA muscles of fasted mice", "setting": "C57BL/6 mice [1]; [4]", "result": "reduced fasting levels"}, {"measurement": "atrogin-1 mRNA levels in TA muscles of fasted mice", "setting": "C57BL/6 mice [1]; [4]", "result": "reduced fasting levels"}, {"measurement": "weight gain", "setting": "C57BL/6 mice [2]", "result": "dramatically reduced weight gain"}, {"measurement": "impaired fasting glucose (pre-diabetes) or diabetes", "setting": "C57BL/6 mice [2]; 5 weeks, 16 h fast", "result": "prevented"}, {"measurement": "brown fat in scapular fat pad", "setting": "C57BL/6 mice [2]; 7 weeks", "result": "increased brown fat"}, {"measurement": "energy expenditure (CLAMS)", "setting": "C57BL/6 mice [2]; 7 weeks", "result": "increased energy expenditure"}, {"measurement": "grip strength", "setting": "C57BL/6 mice [2]; 7 weeks", "result": "increased grip strength"}, {"measurement": "hepatic changes of fatty liver disease (liver weight, hepatocellular lipid accumulation, plasma AST, ALT, alkaline phosphatase)", "setting": "C57BL/6 mice [2]; 7 weeks", "result": "prevented all of these hepatic changes"}, {"measurement": "muscle mass", "setting": "C57BL/6 mice [2]; 7 weeks", "result": "increased"}, {"measurement": "obesity-related hypercholesterolemia (plasma cholesterol)", "setting": "C57BL/6 mice [2]; 7 weeks", "result": "reduced obesity-related hypercholesterolemia"}, {"measurement": "retroperitoneal and epididymal fat", "setting": "C57BL/6 mice [2]; 7 weeks", "result": "reduced retroperitoneal and epididymal fat"}, {"measurement": "white fat in scapular fat pad", "setting": "C57BL/6 mice [2]; 7 weeks", "result": "reduced white fat"}, {"measurement": "denervated skeletal muscle fiber diameter (gastrocnemius and TA)", "setting": "C57BL/6 mice [3]; ursolic acid 200 mg/kg i.p. twice daily 7 days", "result": "increase in the size of denervated skeletal muscle fiber diameter"}, {"measurement": "denervation-induced muscle loss (denervated/innervated lower hindlimb muscle weight)", "setting": "C57BL/6 mice [3]; ursolic acid 200 mg/kg i.p. twice daily 7 days after sciatic nerve transsection", "result": "significantly decreased denervation-induced muscle loss"}, {"measurement": "dose of maximal inhibition of immobilization-induced muscle atrophy", "setting": "mice", "result": 200, "unit": "mg/kg"}, {"measurement": "immobilization-induced muscle atrophy (weights of immobile vs mobile TA)", "setting": "mice; 2 days before and 6 days after immobilization, ursolic acid and betulinic acid varying doses, naringenin 200 mg/kg, tomatidine 5-200 mg/kg", "result": "reduced muscle atrophy in a dose-dependent manner; also recorded: reduces immobilization-induced skeletal muscle atrophy"}]}]}
